# Assay results taken from ChEMBL document CHEMBL1201862, “PubChem BioAssay data set” (2004).
# Activity calls are given as the source filed them. Cut-off read from the data, not from the text of the source, for most assays here: actives have a measured EC50 and inactives only a lower limit.
# Columns and labels:
# Major prion protein = Major prion protein (Homo sapiens, UniProt P04156); type: functional, cell-based
# [1] = molecular target: Mitogen-activated protein kinase 10 (Homo sapiens, UniProt P53779); experiment: Dose response biochemical screening assay for inhibitors of c-Jun N-Terminal Kinase 3 (JNK3). [Related pubchem assays: 746 ]
# Chain of Mitogen-activated protein kinase 10 (P53779 whole entry): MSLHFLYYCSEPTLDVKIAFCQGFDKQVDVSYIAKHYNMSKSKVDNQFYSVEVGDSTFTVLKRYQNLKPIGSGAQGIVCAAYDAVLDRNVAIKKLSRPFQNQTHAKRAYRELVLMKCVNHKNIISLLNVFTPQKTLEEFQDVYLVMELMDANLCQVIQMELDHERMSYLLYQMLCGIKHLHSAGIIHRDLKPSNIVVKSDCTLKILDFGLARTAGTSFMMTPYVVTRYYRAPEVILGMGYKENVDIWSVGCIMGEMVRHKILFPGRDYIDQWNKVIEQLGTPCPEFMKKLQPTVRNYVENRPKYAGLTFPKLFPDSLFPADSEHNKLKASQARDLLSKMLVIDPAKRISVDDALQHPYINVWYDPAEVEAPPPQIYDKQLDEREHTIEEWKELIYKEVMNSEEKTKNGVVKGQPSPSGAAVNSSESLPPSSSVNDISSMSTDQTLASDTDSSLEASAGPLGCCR
# Protein skinhead-1 = molecular target: T1, Protein skinhead-1 (Caenorhabditis elegans, UniProt P34707); type: functional
# T1 sequence (P34707 whole entry): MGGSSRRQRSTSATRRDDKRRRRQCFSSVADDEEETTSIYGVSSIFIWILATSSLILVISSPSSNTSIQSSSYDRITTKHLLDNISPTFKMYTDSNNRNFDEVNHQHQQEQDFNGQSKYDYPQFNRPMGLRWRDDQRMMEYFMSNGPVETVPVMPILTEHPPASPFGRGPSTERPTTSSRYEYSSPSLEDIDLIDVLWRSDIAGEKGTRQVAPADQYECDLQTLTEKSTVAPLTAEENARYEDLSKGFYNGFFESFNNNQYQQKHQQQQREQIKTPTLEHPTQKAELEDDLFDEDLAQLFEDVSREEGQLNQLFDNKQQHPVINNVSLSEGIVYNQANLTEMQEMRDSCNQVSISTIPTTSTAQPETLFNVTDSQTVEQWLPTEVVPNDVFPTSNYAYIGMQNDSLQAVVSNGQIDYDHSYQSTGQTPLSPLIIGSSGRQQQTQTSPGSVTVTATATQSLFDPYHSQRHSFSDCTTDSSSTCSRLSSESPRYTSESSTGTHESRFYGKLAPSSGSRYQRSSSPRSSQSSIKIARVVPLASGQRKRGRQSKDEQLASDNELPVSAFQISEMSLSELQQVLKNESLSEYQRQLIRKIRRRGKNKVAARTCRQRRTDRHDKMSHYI
# [2] = molecular target: T2, Aryl hydrocarbon receptor (Homo sapiens, UniProt P35869); experiment: Luminescence-based cell-based high throughput dose response assay for activators of the Aryl Hydrocarbon Receptor (AHR). [Related pubchem assays: 2796 (Primary screen (AHR activators in singlicate)), 2845 (Confirmation screen (AHR activators in triplicate)), 434939 (Counterscreen (PXR activators in triplicate)), 2804 (Summary (AHR activators))]; type: ADME
# T2 sequence (P35869 whole entry): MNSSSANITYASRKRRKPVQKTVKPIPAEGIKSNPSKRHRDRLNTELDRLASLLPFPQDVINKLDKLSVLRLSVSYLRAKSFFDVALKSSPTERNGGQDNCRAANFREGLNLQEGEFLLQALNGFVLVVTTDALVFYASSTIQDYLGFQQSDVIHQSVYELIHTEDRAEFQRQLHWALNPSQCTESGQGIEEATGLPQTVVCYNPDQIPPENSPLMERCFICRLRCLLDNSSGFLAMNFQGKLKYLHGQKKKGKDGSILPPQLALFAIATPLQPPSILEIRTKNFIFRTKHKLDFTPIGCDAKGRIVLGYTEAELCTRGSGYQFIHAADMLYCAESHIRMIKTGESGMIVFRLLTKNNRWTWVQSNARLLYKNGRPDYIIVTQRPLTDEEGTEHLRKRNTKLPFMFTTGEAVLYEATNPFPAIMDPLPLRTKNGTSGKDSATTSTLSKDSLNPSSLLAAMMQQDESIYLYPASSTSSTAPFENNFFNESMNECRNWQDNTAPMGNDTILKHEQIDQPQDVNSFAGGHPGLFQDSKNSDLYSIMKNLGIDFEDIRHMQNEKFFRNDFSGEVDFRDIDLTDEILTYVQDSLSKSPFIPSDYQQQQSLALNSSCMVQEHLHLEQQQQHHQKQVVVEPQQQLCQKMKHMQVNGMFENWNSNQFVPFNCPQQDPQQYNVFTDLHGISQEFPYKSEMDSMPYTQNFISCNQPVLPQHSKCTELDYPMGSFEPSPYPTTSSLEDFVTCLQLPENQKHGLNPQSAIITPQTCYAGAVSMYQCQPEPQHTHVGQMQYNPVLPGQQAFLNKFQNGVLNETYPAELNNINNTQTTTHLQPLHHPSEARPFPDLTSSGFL
# [3] = Luminescence Cell-Based Dose Confirmation to Identify Activators of 5'UTR Stem-Loop Driven Alpha-Synuclein mRNA Translation in H4 Neuroglioblastoma Cells. [Related pubchem assays: 1829 (Project Summary), 1814 (Primary HTS)]; type: functional
# [4] = Luminescence Cell-Based Dose Response to Identify Activators of Luciferase Translation or Activity in H4-C Neuroglioblastoma Cells. [Related pubchem assays: 1829 (Project Summary), 1814 (Primary HTS)]; type: functional
# [5] = molecular target: T3, Type-1 angiotensin II receptor (Homo sapiens, UniProt P30556); experiment: antagonism of angiotensin II type 1 receptor – cell-based, uHTS hits, selectivity assay for APJ receptor antagonist project, dose response (AID 463214); type: functional;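 note: antagonist potency against angiotensin II stimulated AT1 response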
# T3 sequence (P30556 whole entry): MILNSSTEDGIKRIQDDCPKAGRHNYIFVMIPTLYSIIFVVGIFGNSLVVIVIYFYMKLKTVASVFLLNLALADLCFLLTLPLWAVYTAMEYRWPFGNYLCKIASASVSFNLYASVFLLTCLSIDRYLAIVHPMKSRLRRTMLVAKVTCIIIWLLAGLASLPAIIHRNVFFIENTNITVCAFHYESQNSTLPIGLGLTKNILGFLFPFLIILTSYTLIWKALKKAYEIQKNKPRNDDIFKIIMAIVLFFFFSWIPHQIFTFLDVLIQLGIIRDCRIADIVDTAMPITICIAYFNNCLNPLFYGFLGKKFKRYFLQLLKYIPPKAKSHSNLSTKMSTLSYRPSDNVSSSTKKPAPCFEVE
# Large T antigen = Large T antigen (Simian virus 40, UniProt P03070); type: functional, Betapolyomavirus macacae;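 note: Confirmatory-stage PubChem screen for compounds that inhibit SV40 T antigen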
# Chain of Large T antigen (P03070 whole entry): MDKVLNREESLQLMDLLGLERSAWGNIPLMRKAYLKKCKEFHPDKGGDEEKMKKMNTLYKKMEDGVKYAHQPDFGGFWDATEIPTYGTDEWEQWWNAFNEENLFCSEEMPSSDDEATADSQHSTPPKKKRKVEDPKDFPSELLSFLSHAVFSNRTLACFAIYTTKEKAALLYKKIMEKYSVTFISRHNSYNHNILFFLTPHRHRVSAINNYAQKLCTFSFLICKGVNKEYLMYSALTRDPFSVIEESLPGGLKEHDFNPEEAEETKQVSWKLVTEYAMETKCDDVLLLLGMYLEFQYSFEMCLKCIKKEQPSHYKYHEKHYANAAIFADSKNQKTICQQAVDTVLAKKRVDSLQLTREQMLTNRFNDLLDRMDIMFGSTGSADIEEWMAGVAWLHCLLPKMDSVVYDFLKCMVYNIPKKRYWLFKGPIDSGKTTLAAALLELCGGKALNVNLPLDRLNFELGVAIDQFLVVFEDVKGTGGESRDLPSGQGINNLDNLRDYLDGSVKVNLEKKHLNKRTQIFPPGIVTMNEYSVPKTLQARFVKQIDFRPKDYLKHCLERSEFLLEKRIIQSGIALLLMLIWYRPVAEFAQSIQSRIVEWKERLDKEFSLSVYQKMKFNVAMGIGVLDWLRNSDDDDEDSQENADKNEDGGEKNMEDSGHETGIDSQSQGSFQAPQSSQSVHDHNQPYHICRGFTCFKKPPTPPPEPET
# Beta-galactosidase = Beta-galactosidase (Escherichia coli, UniProt Q8VNN2); experiment: PubChem AID 485352; type: functional
# Chain of Beta-galactosidase (Q8VNN2 whole entry): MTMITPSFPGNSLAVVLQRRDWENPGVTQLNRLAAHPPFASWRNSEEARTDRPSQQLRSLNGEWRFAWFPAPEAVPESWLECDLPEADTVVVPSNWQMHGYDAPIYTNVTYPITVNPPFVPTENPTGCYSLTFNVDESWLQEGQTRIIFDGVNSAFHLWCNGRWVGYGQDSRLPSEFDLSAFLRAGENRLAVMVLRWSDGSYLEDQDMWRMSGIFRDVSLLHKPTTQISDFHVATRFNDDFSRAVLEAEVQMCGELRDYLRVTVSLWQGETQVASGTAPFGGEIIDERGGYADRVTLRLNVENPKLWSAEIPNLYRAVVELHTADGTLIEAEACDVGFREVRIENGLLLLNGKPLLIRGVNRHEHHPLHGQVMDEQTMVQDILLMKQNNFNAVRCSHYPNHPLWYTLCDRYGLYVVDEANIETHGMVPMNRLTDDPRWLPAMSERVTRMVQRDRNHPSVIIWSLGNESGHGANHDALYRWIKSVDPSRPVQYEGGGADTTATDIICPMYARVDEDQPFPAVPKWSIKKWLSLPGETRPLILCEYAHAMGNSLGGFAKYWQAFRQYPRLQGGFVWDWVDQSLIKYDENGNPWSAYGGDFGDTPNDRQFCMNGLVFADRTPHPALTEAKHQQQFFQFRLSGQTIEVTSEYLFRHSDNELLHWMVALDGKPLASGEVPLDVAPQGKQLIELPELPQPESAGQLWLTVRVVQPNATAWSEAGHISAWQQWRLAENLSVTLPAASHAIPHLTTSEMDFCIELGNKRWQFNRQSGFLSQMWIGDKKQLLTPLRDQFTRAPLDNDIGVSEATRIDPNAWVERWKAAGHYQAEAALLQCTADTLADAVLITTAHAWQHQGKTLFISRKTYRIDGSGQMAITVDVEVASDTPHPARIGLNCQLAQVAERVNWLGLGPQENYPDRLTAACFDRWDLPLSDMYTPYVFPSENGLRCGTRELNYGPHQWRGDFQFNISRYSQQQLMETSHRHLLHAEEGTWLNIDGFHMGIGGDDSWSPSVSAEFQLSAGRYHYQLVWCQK
# [6] = Luminescence Cell-Based Dose Response to Identify Activators of 5'UTR Stem-Loop Driven Prion Protein mRNA Translation in H4-C Neuroglioblastoma Cells. [Related pubchem assays: 1829 (Project Summary), 1814 (Primary HTS)]; type: functional
# [7] = Luminescence Cell-Based Dose Response HTS to Identify Activators of Luciferase Translation or Activity in H4 […] Cells. [Related pubchem assays: 1829 (Project Summary), 1814 (Primary HTS)]; type: functional
# H4 = experiment: Luminescence Cell-Based Dose Response HTS to Identify Activators of 5'UTR Stem-Loop Driven Prion Protein mRNA Translation in H4 Neuroglioblastoma Cells. [Related pubchem assays: 1829 (Project Summary), 1814 (Primary HTS)]; type: functional; details: Homo sapiens
# [8] = molecular target: T4, Replicative DNA helicase DnaB (Mycobacterium tuberculosis, UniProt P9WMR3); experiment: DnaB intein splicing inhibitors, dose response, biochemical, cell-free fluorescence (AID 449749); type: functional
# T4 sequence (P9WMR3 whole entry): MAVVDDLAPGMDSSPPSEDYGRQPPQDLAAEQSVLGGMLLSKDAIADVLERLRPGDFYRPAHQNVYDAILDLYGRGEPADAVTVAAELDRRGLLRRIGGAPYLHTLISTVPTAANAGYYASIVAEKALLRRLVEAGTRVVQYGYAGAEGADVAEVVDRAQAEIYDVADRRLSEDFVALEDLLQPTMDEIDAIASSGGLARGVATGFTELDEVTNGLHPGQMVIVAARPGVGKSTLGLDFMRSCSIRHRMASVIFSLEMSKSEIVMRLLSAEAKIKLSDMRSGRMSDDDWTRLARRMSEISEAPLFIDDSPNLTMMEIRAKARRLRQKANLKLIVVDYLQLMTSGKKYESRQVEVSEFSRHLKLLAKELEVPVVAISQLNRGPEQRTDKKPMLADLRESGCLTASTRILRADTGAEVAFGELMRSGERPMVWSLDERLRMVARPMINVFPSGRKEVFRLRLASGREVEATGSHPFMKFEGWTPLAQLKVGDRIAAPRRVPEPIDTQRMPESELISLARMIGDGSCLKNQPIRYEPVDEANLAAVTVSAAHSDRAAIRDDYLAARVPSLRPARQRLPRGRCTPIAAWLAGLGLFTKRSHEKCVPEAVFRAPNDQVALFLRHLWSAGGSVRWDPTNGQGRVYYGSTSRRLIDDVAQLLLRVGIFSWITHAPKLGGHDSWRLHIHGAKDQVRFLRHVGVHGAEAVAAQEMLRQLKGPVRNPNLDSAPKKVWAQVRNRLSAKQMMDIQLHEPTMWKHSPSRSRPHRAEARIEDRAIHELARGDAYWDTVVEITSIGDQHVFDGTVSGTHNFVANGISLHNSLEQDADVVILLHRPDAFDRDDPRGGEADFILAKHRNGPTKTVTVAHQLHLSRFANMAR
# [9] = molecular target: T5, Microphthalmia-associated transcription factor (Homo sapiens, UniProt O75030); experiment: reducers of TRPM1 reporter luminescence, concentration series – cell-based, SK-MEL-5, cherry-picked, set 3, MITF inhibitor project, dose response (AID 493073); type: functional;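 note: SK-MEL-5 melanoma cells with luciferase driven by the MITF target TRPM1 promoter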
# T5 sequence (O75030 whole entry): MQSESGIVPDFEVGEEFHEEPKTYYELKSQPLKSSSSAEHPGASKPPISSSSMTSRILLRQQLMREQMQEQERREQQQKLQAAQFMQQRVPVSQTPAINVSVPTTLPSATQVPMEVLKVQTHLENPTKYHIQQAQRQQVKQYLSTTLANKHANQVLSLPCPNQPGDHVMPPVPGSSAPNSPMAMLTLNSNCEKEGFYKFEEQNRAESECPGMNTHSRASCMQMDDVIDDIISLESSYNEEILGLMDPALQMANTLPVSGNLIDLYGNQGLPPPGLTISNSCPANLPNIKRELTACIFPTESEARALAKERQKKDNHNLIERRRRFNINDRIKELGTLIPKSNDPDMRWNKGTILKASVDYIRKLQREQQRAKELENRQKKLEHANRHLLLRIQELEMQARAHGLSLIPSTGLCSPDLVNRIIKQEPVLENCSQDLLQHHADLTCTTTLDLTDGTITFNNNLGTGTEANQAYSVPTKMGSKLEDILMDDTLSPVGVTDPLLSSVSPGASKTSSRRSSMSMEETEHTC
# [10] = Luminescence Cell-Based Dose Confirmation HTS to Identify Activators of 5'UTR Stem-Loop Driven Alpha-Synuclein mRNA Translation in H4 Neuroglioblastoma Cells. [Related pubchem assays: 1829 (Project Summary), 1814 (Primary HTS)]; type: functional
# Protein RecA = molecular target: T6, Protein RecA (Mycobacterium tuberculosis, UniProt P9WHJ3); experiment: Fluorescence Cell-Free Homogeneous Dose Retest to Identify Inhibitors of RecA-Intein Splicing Activity. [Related pubchem assays (depositor defined):AID2097, AID2223, AID489010, AID492950]; type: functional
# T6 sequence (P9WHJ3 whole entry): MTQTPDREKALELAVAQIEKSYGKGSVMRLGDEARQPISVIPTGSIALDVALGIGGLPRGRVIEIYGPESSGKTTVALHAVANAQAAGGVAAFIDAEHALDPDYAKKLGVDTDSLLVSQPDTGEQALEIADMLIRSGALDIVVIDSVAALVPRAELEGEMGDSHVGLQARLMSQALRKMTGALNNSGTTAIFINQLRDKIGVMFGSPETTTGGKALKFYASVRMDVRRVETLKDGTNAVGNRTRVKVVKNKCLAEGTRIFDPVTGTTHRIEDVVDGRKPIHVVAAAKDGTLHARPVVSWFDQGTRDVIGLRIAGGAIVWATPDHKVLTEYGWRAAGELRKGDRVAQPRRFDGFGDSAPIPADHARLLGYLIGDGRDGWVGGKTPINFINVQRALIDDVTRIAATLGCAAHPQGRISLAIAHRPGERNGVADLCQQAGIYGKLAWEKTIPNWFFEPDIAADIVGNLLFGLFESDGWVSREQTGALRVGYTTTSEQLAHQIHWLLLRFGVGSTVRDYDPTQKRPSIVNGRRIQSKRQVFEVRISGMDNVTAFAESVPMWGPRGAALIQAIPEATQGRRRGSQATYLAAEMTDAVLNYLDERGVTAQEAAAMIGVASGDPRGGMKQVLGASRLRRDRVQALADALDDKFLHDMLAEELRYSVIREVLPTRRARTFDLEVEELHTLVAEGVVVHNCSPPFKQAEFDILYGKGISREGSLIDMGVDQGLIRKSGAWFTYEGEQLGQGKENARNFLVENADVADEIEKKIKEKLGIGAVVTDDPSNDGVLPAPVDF
# [11] = viability loss of HPDE-C7K cells – cell-based, fluorescence, HTS, primary screen (AID 431); type: functional; details: Homo sapiens
# [12] = HPDE-C7 pancreatic duct cell viability loss – fluorescence, HTS (AID 430); type: functional, cell-based; details: Homo sapiens
SMILES,EC50 [2],EC50 [3],EC50 [4],EC50 [6],EC50 [7],EC50 (H4),other results
COc1ccc(-c2nnc(-c3ccc(Br)o3)o2)cc1OC,,,,,,,IC50 (Major prion protein): 4.59 µM (active); IC50 [1]: > 93.1 µM (not active); IC50 (Protein skinhead-1): > 100 µM (inactive); IC50 (cells): > 138 µM (inactive)
CC(=O)Nc1cccc2c1C(=O)N(c1ccc(C)cc1)C2=O,1.09 µM (active),,,,,,
Cc1ccc(SSc2cc(C)ccc2N)c(N)c1,,5 µM (active),1.67 µM (active),1.21 µM (active),< 0.1 µM (inconclusive),42.5 µM (inconclusive),IC50 [5]: > 40 µM (not active); IC50 (Large T antigen): 10.8 µM (active); EC50 (Beta-galactosidase): > 40 µM (inactive)
O=C(CCl)Nc1cccc(-c2cnc3ccccc3n2)c1,,0.7 µM (active),0.561 µM (active),> 12 µM (not active),2.98 µM (active),> 60 µM (not active),AC50 [8]: 53.1 µM (active); AC50 [9]: 4.02 µM (active); EC50 [10]: < 0.1 µM (active); EC50 (Protein RecA): 13.3 µM (active)
Cc1nc(N)nc(Nc2ccc(Cl)cc2)c1Br,0.351 µM (active),,,,,,
Cn1c(CCN2CCCCCC2)nc2cc(NC(=O)Nc3ccccc3)ccc21,,,,,,,EC50 [11]: > 20 µM (not active); EC50 [12]: > 20 µM (not active)
O=C(CCC(=O)N1CCN(C2CCCC2)CC1)Nc1nnc(C(F)(F)F)s1,,,,,,,EC50 [11]: > 20 µM (not active); EC50 [12]: > 20 µM (not active)
Oc1ncnc2nn(-c3ccccc3)nc12,,> 12 µM (not active),> 12 µM (not active),4.54 µM (active),> 120 µM (not active),> 120 µM (not active),EC50 [10]: < 0.1 µM (active)
CC(=O)Nc1cccc(OCC(=O)Nc2ccc(F)cc2)c1,10.6 µM (not active),,,,,,
CCc1cc(/C(Cc2ccc3ccccc3n2)=N\O)c(O)cc1O,> 3.39 µM (active),,,,,,
